Results published in ChEMBL document CHEMBL1201862, “PubChem BioAssay data set” (2004).
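Five compound concentrations were applied to cells in 96-well plates for 48 hours; endpoints were derived by simple linear interpolation of the resulting dose-response curve. GI50 is the concentration that inhibits growth by half.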 The source made the active and inactive calls. Cut-off read from the data, not from the text of the source: active = GI50 up to about 1.1 µM and inactive = higher.

Columns and labels:
Test in all cases: NCI tumour cell line growth inhibition, 48 h
HCC 2998 = tested on: HCC 2998
SF-295 = tested on: SF-295
MDA-MB-435 = tested on: MDA-MB-435
SK-OV-3 = tested on: SK-OV-3
HL-60 = tested on: HL-60
T47D = tested on: T47D
CAKI-1 = tested on: CAKI-1
TK-10 = tested on: TK-10
SNB-75 = tested on: SNB-75
UACC-62 = tested on: UACC-62
KM12 = tested on: KM12
OVCAR-4 = tested on: OVCAR-4
786-0 = tested on: 786-0
NCI-H522 = tested on: NCI-H522
CCRF-CEM = tested on: CCRF-CEM
IGROV-1 = tested on: IGROV-1
HCT-116 = tested on: HCT-116
MDA-MB-231 = tested on: MDA-MB-231
RPMI-8226 = tested on: RPMI-8226

Compound	GI50 (HCC 2998)	GI50 (SF-295)	GI50 (MDA-MB-435)	GI50 (SK-OV-3)	GI50 (HL-60)	GI50 (T47D)	GI50 (CAKI-1)	GI50 (TK-10)	GI50 (SNB-75)	GI50 (UACC-62)	GI50 (KM12)	GI50 (OVCAR-4)	GI50 (786-0)	GI50 (NCI-H522)	GI50 (CCRF-CEM)	GI50 (IGROV-1)	GI50 (HCT-116)	GI50 (MDA-MB-231)	GI50 (RPMI-8226)
CC(N/N=C(\S)N1CCN(c2ccccn2)CC1)c1nccc2ccccc12 (stereo not given)	0.769 µM (active)	1.3 µM (inactive)	1.66 µM (inactive)	0.241 µM (active)	< 0.01 µM (active)	< 0.01 µM (active)	1.61 µM (inactive)	1.64 µM (inactive)	6.43 µM (inactive)	0.305 µM (active)	3.16 µM (inactive)	0.678 µM (active)	0.693 µM (active)	0.0782 µM (active)	< 0.01 µM (active)	–	–	–	–
COc1cc(N(C)C)c(OC)cc1C=C1C=CC=C1	> 100 µM (inactive)	> 100 µM (inactive)	43.1 µM (inactive)	> 100 µM (inactive)	36.4 µM (inactive)	41.3 µM (inactive)	–	> 100 µM (inactive)	–	82.4 µM (inactive)	> 100 µM (inactive)	–	> 100 µM (inactive)	–	54.1 µM (inactive)	> 100 µM (inactive)	82.4 µM (inactive)	> 100 µM (inactive)	–
CC(C)C(C)/C=C\C(C)C1CCC2C3=CC=C4CC(O)CCC4(C)C3CCC21C (stereo not given)	–	> 64.9 µM (inactive)	41.1 µM (inactive)	> 100 µM (inactive)	32.6 µM (inactive)	81.5 µM (inactive)	> 43.7 µM (inactive)	> 55 µM (inactive)	> 42.8 µM (inactive)	> 44.6 µM (inactive)	> 54.8 µM (inactive)	> 100 µM (inactive)	> 43.2 µM (inactive)	38.6 µM (inactive)	19.8 µM (inactive)	31.4 µM (inactive)	39.8 µM (inactive)	> 40.6 µM (inactive)	29.3 µM (inactive)
CC1(C)OC[C@H](COCOP2(=O)Oc3ccc4ccccc4c3-c3c(ccc4ccccc34)O2)O1	16.9 µM (inactive)	17.6 µM (inactive)	13.7 µM (inactive)	23.8 µM (inactive)	17.1 µM (inactive)	18.3 µM (inactive)	–	20.2 µM (inactive)	–	17.2 µM (inactive)	15.5 µM (inactive)	–	35.5 µM (inactive)	–	27.6 µM (inactive)	23 µM (inactive)	15 µM (inactive)	15.7 µM (inactive)	–
COC(=O)c1ccc(-c2nc(C#N)c(N)o2)cc1	–	> 100 µM (inactive)	> 100 µM (inactive)	> 100 µM (inactive)	–	> 100 µM (inactive)	> 100 µM (inactive)	> 100 µM (inactive)	–	–	> 100 µM (inactive)	> 100 µM (inactive)	59.3 µM (inactive)	39.4 µM (inactive)	> 100 µM (inactive)	99.8 µM (inactive)	> 100 µM (inactive)	27.1 µM (inactive)	> 100 µM (inactive)
O=c1[nH]c2ccc(C(F)(F)F)cc2nc1Cc1ccccc1	24.1 µM (inactive)	33.5 µM (inactive)	28.4 µM (inactive)	44.9 µM (inactive)	34.8 µM (inactive)	40.5 µM (inactive)	49.2 µM (inactive)	> 100 µM (inactive)	45.9 µM (inactive)	42.9 µM (inactive)	31.6 µM (inactive)	33.4 µM (inactive)	35.5 µM (inactive)	–	29.4 µM (inactive)	23.4 µM (inactive)	37.2 µM (inactive)	37.8 µM (inactive)	39.2 µM (inactive)
Cc1cn(CC2=NCC(C)(C)CN2)c(=O)[nH]c1=O	> 100 µM (inactive)	> 100 µM (inactive)	–	> 100 µM (inactive)	> 100 µM (inactive)	> 100 µM (inactive)	–	> 100 µM (inactive)	> 100 µM (inactive)	> 100 µM (inactive)	–	–	> 100 µM (inactive)	> 100 µM (inactive)	> 100 µM (inactive)	> 100 µM (inactive)	> 100 µM (inactive)	> 100 µM (inactive)	–
COc1cccc(N(CN2C(=O)CCC2OC)C(C)=O)c1 (stereo not given)	> 100 µM (inactive)	> 100 µM (inactive)	> 100 µM (inactive)	> 100 µM (inactive)	22.6 µM (inactive)	> 100 µM (inactive)	> 100 µM (inactive)	> 100 µM (inactive)	> 100 µM (inactive)	> 100 µM (inactive)	> 100 µM (inactive)	> 100 µM (inactive)	> 100 µM (inactive)	–	> 100 µM (inactive)	–	> 100 µM (inactive)	> 100 µM (inactive)	> 100 µM (inactive)
COc1cc(S(=O)(=O)Nc2ccc(-c3csc(N4C(=O)C(Cl)C4c4cccc(Oc5ccccc5)c4)n3)cc2)ccc1Cl (stereo not given)	> 100 µM (inactive)	> 100 µM (inactive)	20.3 µM (inactive)	> 100 µM (inactive)	20.5 µM (inactive)	24.4 µM (inactive)	20.2 µM (inactive)	–	22.3 µM (inactive)	24.5 µM (inactive)	26.9 µM (inactive)	4.91 µM (inactive)	13.7 µM (inactive)	1.69 µM (inactive)	3.31 µM (inactive)	2.71 µM (inactive)	35.6 µM (inactive)	–	19.7 µM (inactive)
COc1ccc(-c2cc(-c3cc(F)c(Cl)cc3Cl)[nH]n2)cc1OC	–	18.3 µM (inactive)	46.2 µM (inactive)	31.9 µM (inactive)	15.6 µM (inactive)	28.6 µM (inactive)	50.8 µM (inactive)	43.4 µM (inactive)	23.3 µM (inactive)	–	26.4 µM (inactive)	32.4 µM (inactive)	19.6 µM (inactive)	20.2 µM (inactive)	11.6 µM (inactive)	19.2 µM (inactive)	25.7 µM (inactive)	30.4 µM (inactive)	17.3 µM (inactive)
COCc1cc2c(cc1/C(=C/[N+](=O)[O-])CS(=O)(=O)c1ccccc1)OCO2	> 100 µM (inactive)	> 100 µM (inactive)	> 100 µM (inactive)	> 100 µM (inactive)	> 100 µM (inactive)	> 100 µM (inactive)	> 100 µM (inactive)	> 100 µM (inactive)	> 100 µM (inactive)	> 100 µM (inactive)	–	–	> 100 µM (inactive)	43.6 µM (inactive)	> 100 µM (inactive)	> 100 µM (inactive)	> 100 µM (inactive)	–	> 100 µM (inactive)
N#CCCC1(CCC#N)CCCCCCCCC(CCC#N)(CCC#N)C(O)C1O (stereo not given)	> 100 µM (inactive)	> 100 µM (inactive)	> 100 µM (inactive)	> 100 µM (inactive)	–	> 100 µM (inactive)	> 100 µM (inactive)	74.8 µM (inactive)	> 100 µM (inactive)	> 100 µM (inactive)	> 100 µM (inactive)	> 100 µM (inactive)	> 100 µM (inactive)	30.3 µM (inactive)	–	> 100 µM (inactive)	> 100 µM (inactive)	–	< 0.01 µM (active)
O=c1[nH]c2cc([N+](=O)[O-])c(N/N=C/c3ccc(Cl)cc3Cl)c([N+](=O)[O-])c2[nH]1	–	> 100 µM (inactive)	5.21 µM (inactive)	30.1 µM (inactive)	> 100 µM (inactive)	> 100 µM (inactive)	> 100 µM (inactive)	31.6 µM (inactive)	> 100 µM (inactive)	> 100 µM (inactive)	5.85 µM (inactive)	13.6 µM (inactive)	32.1 µM (inactive)	31.1 µM (inactive)	23.8 µM (inactive)	25.1 µM (inactive)	25.7 µM (inactive)	13.1 µM (inactive)	33.8 µM (inactive)
Cn1c(N/N=C/c2ccccc2)nc(-c2ccc([N+](=O)[O-])cc2)c(C#N)c1=O	–	50.1 µM (inactive)	> 100 µM (inactive)	> 100 µM (inactive)	11 µM (inactive)	97.9 µM (inactive)	54.5 µM (inactive)	55 µM (inactive)	88.5 µM (inactive)	27.9 µM (inactive)	26.9 µM (inactive)	29 µM (inactive)	91.8 µM (inactive)	23.1 µM (inactive)	26 µM (inactive)	49.3 µM (inactive)	27.6 µM (inactive)	19.5 µM (inactive)	17.7 µM (inactive)
COc1cc(=O)oc(/C=C/C=C/C=C/C(C)=C\C2(C)OC(C)C(C)(O)C2O)c1C (stereo not given)	–	> 100 µM (inactive)	> 100 µM (inactive)	> 100 µM (inactive)	> 100 µM (inactive)	> 100 µM (inactive)	> 100 µM (inactive)	> 100 µM (inactive)	68.7 µM (inactive)	> 100 µM (inactive)	87.9 µM (inactive)	–	> 100 µM (inactive)	–	> 100 µM (inactive)	> 100 µM (inactive)	> 100 µM (inactive)	> 100 µM (inactive)	> 100 µM (inactive)
O=c1c(Br)cc2c(-c3ccccc3)c3cc(Br)c(O)c(Br)c3oc-2c1Br	83.8 µM (inactive)	84.9 µM (inactive)	> 100 µM (inactive)	48.4 µM (inactive)	51.6 µM (inactive)	> 100 µM (inactive)	> 100 µM (inactive)	> 100 µM (inactive)	–	> 100 µM (inactive)	> 100 µM (inactive)	22.3 µM (inactive)	> 100 µM (inactive)	–	> 100 µM (inactive)	> 100 µM (inactive)	44.8 µM (inactive)	> 100 µM (inactive)	> 100 µM (inactive)
